This note sets out measurements from patent EP2794556B1, “BIS-(ARYL/HETEROARYL)-METHYLENE COMPOUNDS, PHARMACEUTICAL COMPOSITIONS CONTAINING SAME AND THEIR USE FOR TREATING CANCER” (Gleason, James L., priority 2011, dated 2013).

Data set [1] relates to SCC4 cells. As to the kind of experiment: LDH cytotoxicity assay. As to conditions: vitamin D resistant SCC4 cells, Figures 10 and 11. It counts as cell-based, human. The protocol:
The cytotoxic effects of compounds were screened using a Cytotoxicity Assay Kit (Cayman Chemical), which measures release of the soluble […] enzyme lactate dehydrogenase (LDH) from dying cells into the culture medium using a coupled two-step reaction. LDH in the media catalyzes the reduction of NAD+ to NADH and H+ by oxidation of lactate to pyruvate. LDH-catalyzed NADH production is then measured by following diaphorase catalyzed NADH-dependent reduction of a tetrazolium salt (INT) to highly-colored formazan which absorbs strongly at 490-520 nm.
The proliferation assays above indicated the cessation of growth.

Data set [2] has as its system SCC4 cells. The data set can be described thus: MTS cell proliferation assay. As to conditions: vitamin D resistant SCC4 cells, Figures 7c, 8 and 9. Format: cell-based, human. From the text:
Dose-dependent effects of compounds on cell cycle progression was monitored using a CellTiter 96 Aqueous Non-Radioactive Cell Proliferation Assay Kit (Promega). The assay composed of solutions of a novel tetrazolium compound (MTS) and an electron coupling reagent (phenazine methosulfate; PMS). MTS is reduced by metabolically active cells into a soluble formazan product that absorbs at 490nm. The quantity of formazan product absorbing at 490nm is directly proportional to the number of living cells.

The target of the next data set is T1, HDAC6 (Homo sapiens, UniProt Q9UBN7).
T1 sequence (Q9UBN7 1-1215): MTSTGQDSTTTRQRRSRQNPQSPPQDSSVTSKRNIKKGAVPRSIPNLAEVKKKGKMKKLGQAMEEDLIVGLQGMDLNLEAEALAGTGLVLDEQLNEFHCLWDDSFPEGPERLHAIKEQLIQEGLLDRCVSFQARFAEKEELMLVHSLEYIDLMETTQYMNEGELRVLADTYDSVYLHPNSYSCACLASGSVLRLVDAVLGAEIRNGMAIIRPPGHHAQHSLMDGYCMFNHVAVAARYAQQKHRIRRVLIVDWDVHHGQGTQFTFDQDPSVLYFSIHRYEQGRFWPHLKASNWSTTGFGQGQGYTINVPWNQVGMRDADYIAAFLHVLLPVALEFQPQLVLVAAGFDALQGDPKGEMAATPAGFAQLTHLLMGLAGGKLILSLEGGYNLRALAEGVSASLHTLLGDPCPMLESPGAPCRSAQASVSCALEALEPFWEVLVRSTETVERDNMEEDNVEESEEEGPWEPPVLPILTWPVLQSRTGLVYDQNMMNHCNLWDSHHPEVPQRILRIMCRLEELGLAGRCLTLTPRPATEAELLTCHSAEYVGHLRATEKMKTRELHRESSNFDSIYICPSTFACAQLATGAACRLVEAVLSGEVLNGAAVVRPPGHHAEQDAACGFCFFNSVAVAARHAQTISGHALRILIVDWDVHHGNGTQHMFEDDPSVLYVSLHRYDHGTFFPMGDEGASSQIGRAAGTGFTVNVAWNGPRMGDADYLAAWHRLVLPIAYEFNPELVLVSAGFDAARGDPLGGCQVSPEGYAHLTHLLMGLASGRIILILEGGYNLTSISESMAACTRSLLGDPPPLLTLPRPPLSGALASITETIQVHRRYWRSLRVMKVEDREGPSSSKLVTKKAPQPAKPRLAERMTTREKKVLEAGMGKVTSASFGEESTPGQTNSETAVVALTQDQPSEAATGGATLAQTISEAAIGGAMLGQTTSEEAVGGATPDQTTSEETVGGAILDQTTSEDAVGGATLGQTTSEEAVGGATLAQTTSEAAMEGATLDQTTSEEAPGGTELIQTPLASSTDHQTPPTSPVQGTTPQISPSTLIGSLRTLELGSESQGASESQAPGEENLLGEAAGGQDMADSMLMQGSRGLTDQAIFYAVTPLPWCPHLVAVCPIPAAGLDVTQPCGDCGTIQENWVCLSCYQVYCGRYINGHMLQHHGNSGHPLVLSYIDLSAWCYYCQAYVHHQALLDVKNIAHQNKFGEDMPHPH
As to the kind of experiment: Fluorogenic HDAC inhibition assay, purified enzyme.

A further data set has as its target HDAC3 (Homo sapiens, UniProt O15379). The data set can be described thus: Fluorogenic HDAC inhibition assay, purified enzyme.
Data set [3] concerns SCC4 cells. As to the kind of experiment: EdU cell growth assay. Particulars: for inhibition of proliferation, EdU incorporation: 1,25D-resistant SCC4 cells, Fig. 2e, f.
Description: (§3) EdU cell growth assay. Click-iT EdU Alexa Fluor high-throughput imaging (HCS) assay for cell proliferation. HCS assays were performed on AT84 mouse squamous carcinoma cell line (ATCC) following the manufacturer's instruction (Molecular Probes, Invitrogen). […] All samples were in triplicate.
The target of data set [4] is T2, VDR (Homo sapiens, UniProt P11473).
T2 construct: endogenous in cells; host or cells: SCC25 human head and neck squamous carcinoma cells
T2 sequence (P11473 1-427): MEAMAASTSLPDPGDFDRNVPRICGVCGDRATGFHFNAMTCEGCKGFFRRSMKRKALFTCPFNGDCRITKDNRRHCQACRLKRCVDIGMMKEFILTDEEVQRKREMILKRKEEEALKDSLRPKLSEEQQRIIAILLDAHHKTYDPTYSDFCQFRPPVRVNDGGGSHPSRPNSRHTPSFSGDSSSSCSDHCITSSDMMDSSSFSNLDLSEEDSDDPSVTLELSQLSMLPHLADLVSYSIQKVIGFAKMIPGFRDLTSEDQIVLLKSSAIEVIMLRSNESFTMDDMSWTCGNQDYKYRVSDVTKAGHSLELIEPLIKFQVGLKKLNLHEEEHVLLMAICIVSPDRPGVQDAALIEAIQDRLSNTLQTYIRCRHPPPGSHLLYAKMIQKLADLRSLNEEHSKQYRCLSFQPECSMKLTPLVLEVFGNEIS
As to the kind of experiment: VDR agonism by induction of CYP24 gene expression (RT/PCR). It counts as cell-based. As to conditions: for VDR agonist activity and potency, induction of CYP24 gene expression: Fig. 1b, 1d. On the procedure:
Cell culture. Human head and neck squamous carcinoma cell lines SCC4 and SCC45 and mouse HNSCC line AT84 were purchased from American Type Culture Collection (Manassas, VA) and cultured under recommended conditions. Cells were split at 60-70% confluence, as follows: cells were washed with filtered PBS, split with a 5-10 min incubation with 1 ml Trypsin-EDTA (Invitrogen, Carlsbad, CA) in PBS, collected with medium. Following centrifugation, the supernatant was removed. Cell pellets were resuspended with DMEM-F12, and distributed on fresh media-containing dishes. For treatments, AT84 cells were split and 24h later medium was changed to DMEM + 10% charcoal-stripped FBS.
RNA isolation and RT/PCR analysis. […]. Proc. Nat. Acad. Sci. U.S.A. 105, 8250-55. and Lamblin, M.et al Bioorganic & Medicinal Chemistry (2010) 18:4119-4137. After treatment, cells were washed with PBS, homogenized with 1ml TRIzol Reagent (Invitrogen, Carlsbad, CA), kept at room temperature for 2-5 min, collected and kept at -80 °C for at least 1h. After, thawing 0.2 ml chloroform was added. After vigorous mixing and storing for 10min, mixtures were centrifuged (10,000rpm, 15 min, 4 °C) and the upper transparent layer was transferred to a new tube. 0.5 ml isopropanol was added and the new solution was mixed. After centrifuging at 4 °C, the supernatant was discarded and 1ml of 75% ethanol was added. After centrifuging and discarding the supernatant, the pellet was air-dried for 5-10 min, and then dissolved in ddH2O. RNA concentrations were measured using a spectrophotometer, and 1-3µg of RNA were loaded for reverse transcriptase reactions (total volume: 20 µl). 80µl of ddH2O was added to the RT-product, and 1.5µl of that was used as template for the PCR reaction. Reverse transcriptase (Super Script II) was purchased from Invitrogen (Carlsbad, CA). DNA polymerase and dNTP's were ordered from Fermentas (Glen Burnie, MD).
(§1) Test compounds (10 µM) were first screened for VDR agonism by analysis of induction of CYP24 gene expression in 1,25D-sensitive human SCC25 cells. […]. Consistent with binding to the VDR, induction of CYP24 by compound JF-B01, compound JF-B53 or compound 16 (JF-B54) was blocked (Fig. 1c). […]

The subject of a further data set is AT84 cells. As to the kind of experiment: EdU cell growth assay. As to conditions: 1,25D-sensitive AT84 cells, Fig. 2d.
A further data set relates to SCC25 cells. The data set can be described thus: EdU cell growth assay. Particulars: higher concentrations.
Data set [5] concerns total intracellular HDAC activity in SCC25 cells. The data set can be described thus: HDACi activity with fluorogenic substrate in live cells. Format: cell-based, human. Particulars: increasing concentration, Fig. 2a, b. The source says:
(§2) This assay measures the inhibition of total intracellular HDAC activity and determines the capacity of compounds to inhibit HDACs in the form of their naturally occurring complexes.

In data set [6] the test system is total intracellular HDAC activity in SCC4 cells. Described as above. It counts as cell-based, human. Particulars: increasing concentration, Fig. 2a, b.
Source text: as §2

In data set [7] the target is T2, VDR. The data set can be described thus: Chromatin immunoprecipitation (ChIP) assay, CYP24 promoter, SCC25 cells. It counts as cell-based. As to conditions: Fig. 1e. The protocol: Chromatin immunoprecipitation assays. ChIP assays were performed with sonicated extracts of SCC25 cells as described (see Wang, T.-T. et al. J Immunol (2004) 173:2909-2912). […] Immunoprecipitations were performed using normal rabbit IgG, anti-VDR antibody (c-20) (Santa Cruz Biotechnology, Santa Cruz, CA). […].
as §1

Broadly, the pIC50 is −log10 of the IC50, conventionally taken in molar units. Lower therefore signals a large IC50.

pIC50: −log10 of the molar value.

HDAC3, sequence (O15379 whole entry, species assumed): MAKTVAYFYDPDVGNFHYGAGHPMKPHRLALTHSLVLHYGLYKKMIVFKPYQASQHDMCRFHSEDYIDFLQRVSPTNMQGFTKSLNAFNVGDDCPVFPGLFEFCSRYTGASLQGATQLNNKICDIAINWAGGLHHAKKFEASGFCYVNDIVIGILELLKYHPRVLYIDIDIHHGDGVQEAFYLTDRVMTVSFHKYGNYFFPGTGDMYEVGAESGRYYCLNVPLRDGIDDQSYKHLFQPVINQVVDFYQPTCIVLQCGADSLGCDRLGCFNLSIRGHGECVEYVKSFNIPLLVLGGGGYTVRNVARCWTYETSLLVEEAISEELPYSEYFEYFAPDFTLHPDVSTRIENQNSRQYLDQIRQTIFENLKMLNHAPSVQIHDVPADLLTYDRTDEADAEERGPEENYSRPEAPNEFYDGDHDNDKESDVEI
HDAC3, sequence (Q9Y618 395-489 partner limits assumed, species assumed): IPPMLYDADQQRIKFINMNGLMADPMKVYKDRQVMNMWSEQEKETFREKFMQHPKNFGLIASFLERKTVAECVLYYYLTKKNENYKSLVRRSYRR
Description for AT84 cells: as §3
Description for HDAC3: (§4) Fluorogenic HDAC inhibition assay. Boc-Lys(Ac)-7-amino-4-methylcoumarin (Boc-Lys(Ac)-AMC) was used as substrate for the HDAC assays. […] Trypsin was used to stop the reaction, releasing free AMC. The trypsin solution was prepared as follow: trypsin was dissolved in HDAC buffer to give a concentration of 10 mg/mL. Release of AMC was monitored by measuring the fluorescence at 460 nm (lex = 390 nm) with a microplate reader (SpectraMax Gemini) at 37 °C. The AMC signals were recorded against a blank with buffer, substrate and trypsin but without the enzyme. All experiments were carried out at least in triplicate.
(§5) For standard HDAC assays, 50 µL of HDAC buffer was mixed with 10 µL of diluted enzyme solution in HDAC buffer at room temperature. The HDAC reaction was started by adding 40 µL of substrate solution in HDAC buffer followed by 30 min of incubation with stirring at 37 °C. The reaction was stopped by adding 100 µL of trypsin solution. After a 10 min incubation with stirring at 37 °C, the release of AMC was monitored by measuring the fluorescence. For HDAC inhibition assays, inhibitor diluted in 50 µL of HDAC buffer was mixed with 10 µL of diluted enzyme solution in HDAC buffer at room temperature. The HDAC reaction was started by adding 40 µL of substrate solution in HDAC buffer followed by 30 min of incubation with stirring at 37 °C. The reaction was stopped by adding 100 µL of trypsin solution. After a 10 min incubation with stirring at 37 °C, the release of AMC was monitored by measuring the fluorescence.
Description for HDAC6: as §4, §5

Take `CCC(CC)(c1ccc(OCC(O)C(C)(C)C)c(C)c1)c1c[nH]c2cc(CCC(=O)NO)ccc12` (stereo not shown) [DK-222, N-hydroxy-3-(3-(3-(4-(2-hydroxy-3,3-dimethylbutoxy)-3-methylphenyl)pentan-3-yl)-1H-indol-6-yl)propanamide]: the “cytotoxicity, LDH release” value in the data set with SCC4 cells [1] was “good cytotoxicity”. Moreover, in the data set on SCC4 cells [2], the antiproliferative potency entry was “low micromolar potency”.
As for `CCC(CC)(c1ccc(OCC(O)C(C)(C)C)c(C)c1)c1ccc(OCC(=O)NO)c(Br)c1` (stereo not shown) [DK-309, 2-(2-bromo-4-(3-(4-(2-hydroxy-3,3-dimethylbutoxy)-3-methylphenyl)pentan-3-yl)phenoxy)-N-hydroxyacetamide], the “cytotoxicity, LDH release” value in the data set with SCC4 cells [1] was “good cytotoxicity”.
For the molecule `CCC(CC)(c1ccc(OCC(=O)NO)cc1)c1ccc(OCC(O)C(C)(C)C)c(C)c1` (stereo not shown) [DK-366, N-hydroxy-2-(4-(3-(4-(2-hydroxy-3,3-dimethylbutoxy)-3-methylphenyl)pentan-3-yl)phenoxy)acetamide], in the data set with SCC4 cells [1], the “cytotoxicity, LDH release” value was “good cytotoxicity”. Besides, the pIC50 against HDAC6 is 5.09 to 5.18. Also, the antiproliferative potency result in the data set with SCC4 cells [2] is listed as “low micromolar potency”.
For the molecule `CCC(CC)(c1ccc(OCC(=O)NO)c(C)c1)c1ccc(OCC(CO)CO)c(C)c1` [JF-B21], the negative logarithm of the IC50 (pIC50) is 4.44 at HDAC3 and 4.42 against HDAC6. For the same molecule, the entries for the “inhibition of proliferation, EdU incorporation” value with SCC4 cells [3] and with AT84 cells were “failed to block SCC4 proliferation” and “failed to block AT84 proliferation”, respectively. Moreover, the “VDR agonism by induction of CYP24 gene expression” value on VDR [4] (screen at 10 µM, SCC25 cells, Fig. 1a) was “completely inactive”.
`CCC(O)(CC)COc1ccc(C(CC)(CC)c2ccc(OCC(=O)NO)c(C)c2)cc1C` [JF-B54, 2-(4-(3-(4-(2-Ethyl-2-hydroxybutoxy)-3-methylphenyl)pentan-3-yl)-2-methylphenoxy)-N-hydroxyacetamide]: the results for the negative-log IC50 (pIC50) against HDAC3 and on HDAC6 were 4.52 and 4.50, respectively. Besides, the “EdU incorporation at higher concentrations” value is “completely abolished EdU incorporation” in the data set on SCC25 cells and “completely abolished EdU incorporation” in the data set with SCC4 cells [3] (SCC4 cells, higher concentrations). Further, the “HDACi activity, substrate deacetylation” value in [5] and in data set [6] was “most potent” each time. The “inhibition of proliferation, EdU incorporation” value with SCC4 cells [3] was “completely”. In addition, at VDR [4] (Fig. 1c, blocking agent not given), the “induction of CYP24 by the compound was blocked” value is listed as “blocked”. In addition, the “VDR agonist activity and potency, induction of CYP24 gene expression” value (“VDR agonist activity and potency” for short) at VDR [4] (SCC25 cells) is listed as “VDR agonist activity, but with reduced potency”.
For the molecule `CCC(CC)(c1ccc(OCC(=O)NO)c(C)c1)c1ccc(OC[C@H](O)C(C)(C)C)c(C)c1` [JF-C71, N-Hydroxy-2-(4-(3-(4-((2R)-hydroxy-3,3-dimethylbutoxy)-3-methylphenyl)pentan-3-yl)-2-methylphenoxy)acetamide], the negative logarithm of the IC50 (pIC50) on HDAC3 is 4.66; against HDAC6, 4.58. The “binding of the VDR to the vitamin D response element in the proximal promoter of the CYP24 gene” value on VDR [7] is reported as “induced binding of the VDR”. On VDR [4] (SCC25 cells), the “VDR agonist activity and potency” value is reported as “VDR agonists with similar potencies”. The antiproliferative potency result with SCC4 cells [2] is “low micromolar potency”.
`CCC(CC)(c1ccc(OCC(=O)NO)c(C)c1)c1ccc(OC[C@@H](O)C(C)(C)C)c(C)c1` [JF-C72, N-Hydroxy-2-(4-(3-(4-((2S)-hydroxy-3,3-dimethylbutoxy)-3-methylphenyl)pentan-3-yl)-2-methylphenoxy)acetamide]: the “binding of the VDR to the vitamin D response element in the proximal promoter of the CYP24 gene” value at VDR [7] is reported as “induced binding of the VDR”. In addition, the “VDR agonist activity and potency” value at VDR [4] (SCC25 cells) is “VDR agonists with similar potencies”. For the same molecule, the antiproliferative potency entry with SCC4 cells [2] is “low micromolar potency”.
